Reference: patent US20100056568A1, “Cycloalkylamine substituted isoquinolone and isoquinolinone derivatives” (sanofi-aventis, priority 2006, published 2010)
Counter-ions that a name gives are not always drawn.

These compounds were tested against T1, human recombinant ROCK II (Homo sapiens, UniProt O75116) (assay: Determination of Rho kinase inhibition (Caliper peptide phosphorylation assay)). Conditions: negative decadal logarithm of the IC50; ROCK II residues 11-552, fluorescein peptide substrate, 60 min at 32° C.; tested as salt or free base obtained in the examples.
T1 construct: recombinant human ROCK-II residues 11-552; His6 (N); purchased Upstate Ltd., Dundee, UK
Assay type: biochemical
Protocol: To measure Rho-kinase inhibition, IC50 values were determined according to the following protocol:
Active human recombinant ROCK II (N-terminal His6-tagged recombinant human ROCK-II residues 11-552) was purchased from Upstate Ltd., Dundee, UK. The peptide substrate, Fluorescein-AKRRRLSSLRA-COOH, was obtained from JPT Peptide Technologies, Berlin, Germany. Adenosine-5′-triphosphate (ATP), bovine serum albumine (BSA), dimethylsulphoxide (DMSO), 4-(2-Hydroxyethyl)piperazine-1-ethanesulfonic acid (Hepes), Brij-35 and dithiothreitol (DTT) were purchased from Sigma-Aldrich, Munich, Germany. Tris(hydroxymethyl)-aminomethane (Tris), magnesium chloride, NaOH, 1M HCl and EDTA were obtained from Merck Biosciences, Darmstadt, Germany. “Complete” protease inhibitor was from Roche Diagnostics, Mannheim, Germany.
Test compounds were diluted to the appropriate concentrations in buffer 1 (25 mM Tris-HCl, pH 7.4, 5 mM MgCl2, 2 mM DTT, 0.02% (w/v) BSA and 3% DMSO). The ROCK II enzyme was diluted to a concentration of 100 ng/ml in buffer 2 (25 mM Tris-HCl, pH 7.4, 5 mM MgCl2, 2 mM DTT and 0.02% (w/v) BSA). The peptide substrate and ATP were diluted to concentrations of 3 μM and 120 μM, respectively, in the buffer 2. Two μl of the compound solution were mixed with 2 μl of the diluted enzyme in a 384-well small volume microtiter plate (Greiner, Bio-One, Frickenhausen, Germany), and the kinase reaction was initiated by addition of 2 μl of the solution containing peptide substrate and ATP. After 60 min incubation at 32° C., the reaction was stopped by addition of 20 μl of a solution containing 100 mM Hepes-NaOH, pH 7.4, 0.015% (v/v) Brij-35, 45 mM EDTA and 0.227% chip coating reagent 1 (Caliper Lifescience Inc, Hopkinton, Mass.). Phosphorylation of the substrate peptide was then detected on a Caliper 3000 instrument essentially as described by Pommereau et al (J. Biomol. Screening 9(5), 409-416, 2004). Separation conditions were as follows: Pressure −1.3 psi, upstream voltage −1562 V, downstream voltage −500 V, sample sip time 200 ms. Positive controls (buffer 1 instead of compound) and negative controls (buffer 1 instead of compound and buffer 2 instead of ROCK II) were run in parallel on each plate.
The following products/compounds were tested in said assay by using the respective form (salt or free base) obtained as in the examples described above and the following activities were measured.

T1 sequence (O75116 11-552): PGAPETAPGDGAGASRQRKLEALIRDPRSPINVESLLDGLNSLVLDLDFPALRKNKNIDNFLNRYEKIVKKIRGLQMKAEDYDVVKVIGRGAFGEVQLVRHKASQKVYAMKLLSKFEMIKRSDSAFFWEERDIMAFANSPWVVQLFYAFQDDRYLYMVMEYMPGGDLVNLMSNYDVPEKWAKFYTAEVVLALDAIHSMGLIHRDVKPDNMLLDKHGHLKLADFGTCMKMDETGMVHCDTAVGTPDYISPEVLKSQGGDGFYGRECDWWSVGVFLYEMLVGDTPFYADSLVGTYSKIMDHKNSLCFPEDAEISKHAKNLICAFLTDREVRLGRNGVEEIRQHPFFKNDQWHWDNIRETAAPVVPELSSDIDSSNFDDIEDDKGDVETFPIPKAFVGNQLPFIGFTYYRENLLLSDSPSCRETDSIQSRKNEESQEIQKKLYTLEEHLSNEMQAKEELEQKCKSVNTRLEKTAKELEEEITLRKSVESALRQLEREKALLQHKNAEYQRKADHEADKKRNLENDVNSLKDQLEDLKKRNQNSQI

IC50 [nM]	Compound
≤ 1000	N[C@H]1CCCC[C@H]1Nc1ccc2c(=O)[nH]ccc2c1 (relative stereo) [Compound 40, 6-cis-(2-Amino-cyclohexyl-amino)-2H-isoquinolin-1-one]
≤ 1000	N[C@H]1CC[C@H](Nc2ccc3c(=O)[nH]ccc3c2)CC1 [Compound 36, 6-trans-(4-Amino-cyclohexyl-amino)-2H-isoquinolin-1-one]
≤ 1000	NC1CCCC(Nc2ccc3c(=O)[nH]ccc3c2)C1 (centres unmarked) [Compound 41, 6-(3-Amino-cyclohexylamino)-2H-isoquinolin-1-one]
1000 to 10000	CCN(CC)[C@H]1CC[C@@H](Nc2ccc3c(=O)[nH]ccc3c2)CC1 [Compound 44, 6-cis-(4-Diethyl-amino-cyclohexyl-amino)-2H-iso-quinolin-1-one]
≤ 1000	CCN[C@H]1CC[C@@H](Nc2ccc3c(=O)[nH]ccc3c2)CC1 [Compound 45, 6-cis-(4-ethylamino-cyclohexylamino)-2H-isoquinolin-1-one]
1000 to 10000	CCCN(CCC)[C@H]1CC[C@@H](Nc2ccc3c(=O)[nH]ccc3c2)CC1 [Compound 46, 6-cis-(4-Dipropyl-amino-cyclohexyl-amino)-2H-iso-quinolin-1-one]
≤ 1000	CCCN[C@H]1CC[C@@H](Nc2ccc3c(=O)[nH]ccc3c2)CC1 [Compound 47, 6-cis-(4-Propyl-amino-cyclohexyl-amino)-2H-iso-quinolin-1-one]
1000 to 10000	O=c1[nH]ccc2cc(N[C@H]3CC[C@@H](NCc4ccccc4)CC3)ccc12 [Compound 48, 6-cis-(4-Benzyl-amino-cyclohexyl-amino)-2H-iso-quinolin-1-one]
1000 to 10000	CC(C)N[C@H]1CC[C@@H](Nc2ccc3c(=O)[nH]ccc3c2)CC1 [Compound 49, 6-cis-(4-Isopropyl-amino-cyclohexyl-amino)-2H-iso-quinolin-1-one]
1000 to 10000	O=c1[nH]ccc2cc(N[C@H]3CC[C@@H](NCc4cccc(Cl)c4)CC3)ccc12 [Compound 50, 6-cis-[4-(3-Chloro-benzylamino)-cyclohexyl-amino]-2H-isoquinolin-1-one]
1000 to 10000	O=c1[nH]ccc2cc(N[C@H]3CC[C@@H](NCc4ccc(Cl)cc4)CC3)ccc12 [Compound 51, 6-cis-[4-(4-Chloro-benzylamino)-cyclohexyl-amino]-2H-isoquinolin-1-one]
≤ 1000	O=c1[nH]ccc2cc(N[C@H]3CC[C@@H](NCC4CCNCC4)CC3)ccc12 [Compound 52, 6-cis-{4-[(Piperidin-4-ylmethyl)-amino]-cyclohexyl-amino}-2H-isoquinolin-1-one]
≤ 1000	O=c1[nH]ccc2cc(N[C@H]3CC[C@@H](NC4CC4)CC3)ccc12 [Compound 53, 6-cis-(4-Cyclopropyl-amino-cyclo-hexylamino)-2H-isoquinolin-1-one]
≤ 1000	O=c1[nH]ccc2cc(N[C@H]3CC[C@@H](N(C4CC4)C4CC4)CC3)ccc12 [Compound 54, 6-cis-(4-Dicyclo-propyl-amino-cyclohexyl-amino)-2H-isoquinolin-1-one]
≤ 1000	N[C@H]1CC[C@@H](Sc2cc3ccncc3cc2Cl)CC1 [Compound 61, cis-4-(7-Chloro-isoquinolin-6-ylsulfanyl)-cyclohexylamine]
≤ 1000	N[C@H]1CC[C@@H](Sc2cc3ccncc3cc2Br)CC1 [Compound 62, cis-4-(7-Bromo-isoquinolin-6-ylsulfanyl)-cyclohexylamine hydrochloride]
≤ 1000	N[C@H]1CC[C@@H](Sc2cc3cc[nH]c(=O)c3cc2Cl)CC1 [Compound 64, 6-cis-(4-Amino-cyclohexylsulfanyl)-7-chloro-2H-isoquinolin-1-one]
